{"source": "patent US12594267B2", "about": "“Capsid inhibitors for the treatment of HIV” (Gilead Sciences, Inc., priority 2018, dated 2026)", "key": {"HIV-1 clinical isolates": {"test_system": "HIV-1 clinical isolates", "assay": "Antiviral activity against HIV-1 clinical isolates in PHA-stimulated human PBMCs", "format": "cell-based", "conditions": "Human immunodeficiency virus 1, PBMC", "method": "(§1) The antiretroviral activity of the compound of Formula (Ia) was tested against a panel of 22 HIV-1 clinical isolates of HIV-1 and two HIV-2 isolates in freshly isolated, PHA-stimulated human peripheral blood mononuclear cells (PBMCs). The HIV-1 isolates included representative strains from subtypes A, B, C, D, E, F, G, N, O, AE, and AG. Following a 7-day infection, virus production was determined by measuring reverse transcriptase activity in cell-free culture supernatants."}, "[1]": {"assay": "Plasma PK after single oral administration in solution, summary over the four species", "format": "in vivo", "conditions": "male, Sprague-Dawley (rat), beagle (dog), range of species means (rat, dog, cynomolgus monkey, rhesus monkey)", "method": "(§2) An oral formulation containing a compound of Formula (Ia) in […], 20% propylene glycol, 45 PEG 300, and 30% 0.01 N HCl was prepared. The formulation was orally administered to male rat, dog, cynomolgus monkey, and rhesus monkey according to the doses shown in Table 8 below."}, "WT HXB2D": {"test_system": "WT HXB2D", "assay": "Cytopathic antiviral assay in MT-2 cells, wild type HXB2D", "format": "cell-based, HIV-1", "conditions": "mean ± s.d. of three experiments in triplicate", "method": "(§3) The antiviral activity of the compound of Formula (a) was tested against a panel of known HIV-1 mutants resistant to HIV PIs (ATV and DRV), NRTIs (TFV and FTC), NNRTIs (RPV and EFV) or INSTIs (RAL, EVG and DTG) using a cytopathic antiviral assay in MT-2 cells. The compound of Formula (Ia) was fully active against all tested mutants resistant to PIs (Table 11), NRTIs (Table 12), NNRTIs (Table 13) or INSTIs (Table 14)."}, "NNRTI-resistant viruses": {"test_system": "NNRTI-resistant viruses", "assay": "Cytopathic antiviral assay in MT-2 cells, NNRTI-resistant viruses", "format": "cell-based, HIV-1", "conditions": "for EC50 Fold-Change: Mutant/WT (HXB2D) EC50 ratio, mean ± s.d. of three experiments", "method": "as §3"}, "HIV-2 isolates": {"test_system": "HIV-2 isolates", "assay": "Antiviral activity against HIV-2 isolates in PHA-stimulated human PBMCs", "format": "cell-based", "conditions": "Human immunodeficiency virus 2, PBMC, 168 h, 7-day infection, RT activity readout, mean of triplicate", "method": "as §1"}, "INSTI-resistant viruses": {"test_system": "INSTI-resistant viruses", "assay": "Cytopathic antiviral assay in MT-2 cells, INSTI-resistant viruses", "format": "cell-based, HIV-1", "conditions": "for EC50 Fold-Change: Mutant/WT (HXB2D) EC50 ratio, mean ± s.d. of three experiments", "method": "as §3"}, "[2]": {"assay": "Plasma PK after single oral administration in solution, rhesus monkey", "format": "in vivo", "method": "as §2"}, "[3]": {"conditions": "male, plasma, single oral 4.0 mg/kg, solution in 5% ethanol/20% propylene glycol/45% PEG 300/30% 0.01 N HCl, mean ± SD, n=3"}}, "note": "Read-outs that look alike come from different tables or passages of the source.", "data": [{"smiles": "CC(C)(C#Cc1ccc(-c2ccc(Cl)c3c(NS(C)(=O)=O)nn(CC(F)(F)F)c23)c([C@H](Cc2cc(F)cc(F)c2)NC(=O)Cn2nc(C(F)(F)F)c3c2C(F)(F)[C@@H]2C[C@H]32)n1)S(C)(=O)=O", "note": "[Formula (Ia), N—((S)-1-(3-(4-chloro-3-(methylsulfonamido)-1-(2,2,2-trifluoroethyl)-1H-indazol-7-yl)-6-(3-methyl-3-(methylsulfonyl)but-1-yn-1-yl)pyridin-2-yl)-2-(3,5-difluorophenyl)ethyl)-2-((3bS,4aR)-5,5-difluoro-3-(trifluoromethyl)-3b,4,4a,5-tetrahydro-1H-cyclopropa[3,4]cyclopenta[1,2-c]pyrazol-1-yl)acetamide]", "values": [{"measurement": "EC50", "setting": "HIV-1 clinical isolates; 168 h, read-out: EC50 in human PBMCs, HIV-1 subtype C isolate 92BR025, 7-day infection, RT activity readout, mean of triplicate", "value": 0.05, "unit": "nM"}, {"measurement": "EC50", "setting": "HIV-1 clinical isolates; 168 h, read-out: EC50 in human PBMCs, HIV-1 subtype C isolate 98US_MSC5016, 7-day infection, RT activity readout, mean of triplicate", "value": 0.1, "unit": "nM"}, {"measurement": "EC50", "setting": "HIV-1 clinical isolates; 168 h, read-out: EC50 in human PBMCs, HIV-1 subtype D isolate 92UG001, 7-day infection, RT activity readout, mean of triplicate", "value": 0.02, "unit": "nM"}, {"measurement": "EC50", "setting": "HIV-1 clinical isolates; 168 h, read-out: EC50 in human PBMCs, HIV-1 subtype D isolate 98UG_57128, 7-day infection, RT activity readout, mean of triplicate", "value": 0.03, "unit": "nM"}, {"measurement": "EC50", "setting": "HIV-1 clinical isolates; 168 h, read-out: EC50 in human PBMCs, HIV-1 subtype E isolate CMU02, 7-day infection, RT activity readout, mean of triplicate", "value": 0.05, "unit": "nM"}, {"measurement": "EC50", "setting": "HIV-1 clinical isolates; 168 h, read-out: EC50 in human PBMCs, HIV-1 subtype E isolate CMU08, 7-day infection, RT activity readout, mean of triplicate", "value": 0.05, "unit": "nM"}, {"measurement": "EC50", "setting": "HIV-1 clinical isolates; 168 h, read-out: EC50 in human PBMCs, HIV-1 subtype F isolate 93BR020, 7-day infection, RT activity readout, mean of triplicate", "value": 0.05, "unit": "nM"}, {"measurement": "EC50", "setting": "HIV-1 clinical isolates; 168 h, read-out: EC50 in human PBMCs, HIV-1 subtype G isolate JV1083, 7-day infection, RT activity readout, mean of triplicate", "value": 0.16, "unit": "nM"}, {"measurement": "EC50", "setting": "HIV-1 clinical isolates; read-out: HIV-1 EC50 Mean ± s.d., mean over the 22 HIV-1 clinical isolates, human PBMCs", "value": "0.05 ± 0.03", "unit": "nM"}, {"measurement": "EC50", "setting": "HIV-1 clinical isolates; read-out: HIV-1 EC50 Median, median over the 22 HIV-1 clinical isolates, human PBMCs", "value": 0.04, "unit": "nM"}, {"measurement": "EC50", "setting": "HIV-1 clinical isolates; read-out: HIV-1 EC50 Range, range over the 22 HIV-1 clinical isolates, human PBMCs", "value": "0.02 to 0.16", "unit": "nM"}, {"measurement": "Tmax", "setting": "[1]", "value": "8.7 to 18.7", "unit": "h"}, {"measurement": "EC50", "setting": "WT HXB2D; Human immunodeficiency virus 1, MT2, read-out: WT HXB2D EC50, MT-2 cells, INSTI-resistance panel (Table 14)", "value": "0.13 ± 0.03", "unit": "nM"}, {"measurement": "EC50", "setting": "WT HXB2D; Human immunodeficiency virus 1, MT2, read-out: WT HXB2D EC50, MT-2 cells, NNRTI-resistance panel (Table 13)", "value": "0.18 ± 0.02", "unit": "nM"}, {"measurement": "EC50", "setting": "WT HXB2D; MT-2 cells, PI-resistance panel (Table 11), read-out: WT HXB2D EC50", "value": "0.24 ± 0.14", "unit": "nM"}, {"measurement": "EC50 Fold-Change", "setting": "NNRTI-resistant viruses; K103N", "value": "0.3 ± 0.1"}, {"measurement": "EC50 Fold-Change", "setting": "NNRTI-resistant viruses; K103N/Y181C", "value": "0.5 ± 0.2"}, {"measurement": "EC50 Fold-Change", "setting": "NNRTI-resistant viruses; L100I/K103N", "value": "0.5 ± 0.2"}, {"measurement": "EC50 Fold-Change", "setting": "NNRTI-resistant viruses; Y181C", "value": "1.6 ± 1.0"}, {"measurement": "EC50 Fold-Change", "setting": "NNRTI-resistant viruses; Y188L", "value": "0.5 ± 0.1"}, {"measurement": "activity against all tested mutants, in words", "setting": "NNRTI-resistant viruses; mutants resistant to NNRTIs", "value": "fully active"}, {"measurement": "EC50", "setting": "HIV-2 isolates; HIV-2 isolate CBL-20", "value": 0.57, "unit": "nM"}, {"measurement": "EC50", "setting": "HIV-2 isolates; HIV-2 isolate CDC310319", "value": 1.02, "unit": "nM"}, {"measurement": "EC50 Fold-Change", "setting": "INSTI-resistant viruses; E92Q/N155H", "value": "0.9 ± 0.4"}, {"measurement": "EC50 Fold-Change", "setting": "INSTI-resistant viruses; E138K/Q148K", "value": "0.7 ± 0.3"}, {"measurement": "EC50 Fold-Change", "setting": "INSTI-resistant viruses; G140S/Q148R", "value": "0.8 ± 0.3"}, {"measurement": "EC50 Fold-Change", "setting": "INSTI-resistant viruses; N155H/Q148R", "value": "1.3 ± 0.7"}, {"measurement": "EC50 Fold-Change", "setting": "INSTI-resistant viruses; R263K/M50I", "value": "0.9 ± 0.5"}, {"measurement": "EC50 Fold-Change", "setting": "INSTI-resistant viruses; Y143R", "value": "0.5 ± 0.1"}, {"measurement": "activity against all tested mutants, in words", "setting": "INSTI-resistant viruses; mutants resistant to INSTIs", "value": "fully active"}, {"measurement": "bioavailability", "setting": "[2]; male, plasma, single oral 4.0 mg/kg, same solution, calculated based on AUC0-72h, mean ± SD, n=3, read-out: F (oral bioavailability)", "value": "4.4 ± 1.7", "unit": "%"}, {"measurement": "AUC(0-inf)", "setting": "[2]; [3]", "value": "1130 ± 446", "unit": "µM·h"}, {"measurement": "Cmax", "setting": "[2]; [3]", "value": "29.4 ± 7.5", "unit": "µM"}, {"measurement": "Tmax", "setting": "[2]; [3]", "value": "18.7 ± 9.2", "unit": "h"}, {"measurement": "AUC(0-t)", "setting": "[2]; male, plasma, single oral 4.0 mg/kg, solution in 5% ethanol/20% propylene glycol/45% PEG 300/30% 0.01 N HCl, mean ± SD, n=3, read-out: AUC0-72h", "value": "972 ± 367", "unit": "µM·h"}, {"measurement": "F % (bioavailability), in words", "setting": "[2]; oral solution", "value": "low"}]}]}
